We go through 13 molecules from PubChem BioAssay (NCI).

Molecules are shown by their SMILES.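 In this assay, cells in 96-well plates receive the compound at five concentrations for 48 hours. Endpoints are linearly interpolated between the surrounding concentrations. Abbreviation: GI50, concentration required for 50% inhibition of growth. TGI is the concentration that stops growth completely.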

Among the test systems are SK-MEL-28 melanoma; NCI/ADR-RES ovarian; SR leukemia; OVCAR-3 ovarian; MOLT-4 leukemia; IGROV1 ovarian; HCT-15 colon; SN12C renal; SF-295 CNS; SK-MEL-2 melanoma.
Holding throughout (test): NCI-60 cell line screen, 48 h

`O=c1c(O)cccn1CCCN(CCCn1cccc(O)c1=O)CCn1cccc(O)c1=O`: the GI50 was 2.31 µM in the assay with SK-MEL-28 melanoma; > 100 µM in the assay with NCI/ADR-RES ovarian; 0.522 µM in the assay with SR leukemia; 3.39 µM with OVCAR-3 ovarian; 1.79 µM with MOLT-4 leukemia; 23.6 µM with IGROV1 ovarian. The GI50 is 10.3 µM with HCT-15 colon, 3.41 µM in the assay with SN12C renal and 3.63 µM in the assay on SF-295 CNS. Besides, the TGI in the assay with SK-MEL-28 melanoma, in the assay on NCI/ADR-RES ovarian, with SR leukemia, in the assay with OVCAR-3 ovarian, with MOLT-4 leukemia and in the assay on IGROV1 ovarian was > 100 µM each time. Besides, the TGI with HCT-15 colon, with SN12C renal and in the assay with SF-295 CNS was > 100 µM each time.
With `CCN(C(=O)CN1CCN(c2cc3c(cc2F)c(=O)c(C(=O)O)cn3CC)CC1)c1nc(-c2ccccc2)cs1`, the GI50 in the assay on SK-MEL-28 melanoma is 0.59 µM; with NCI/ADR-RES ovarian, 0.331 µM; in the assay on OVCAR-3 ovarian, 0.475 µM; in the assay with MOLT-4 leukemia it was 0.376 µM; in the assay with IGROV1 ovarian, 0.419 µM; in the assay on SK-MEL-2 melanoma it was 0.248 µM. The GI50 in the assay on HCT-15 colon was 0.356 µM; with SN12C renal it was 0.402 µM; in the assay with SF-295 CNS it was 0.235 µM. Besides, the TGI was > 100 µM in the assay on SK-MEL-28 melanoma; > 100 µM in the assay on NCI/ADR-RES ovarian; > 100 µM with OVCAR-3 ovarian; > 100 µM in the assay on MOLT-4 leukemia; > 100 µM in the assay with IGROV1 ovarian; 0.692 µM in the assay on SK-MEL-2 melanoma. Also, the TGI was > 100 µM with HCT-15 colon, > 100 µM with SN12C renal and 0.746 µM in the assay with SF-295 CNS.
Regarding `CC1=C(C(=O)Nc2ccc(F)c(Cl)c2)C(c2ccccc2O)NC(=O)N1` (configuration not stated), the GI50 in the assay with SK-MEL-28 melanoma is 79.7 µM; with NCI/ADR-RES ovarian, > 100 µM; with OVCAR-3 ovarian it was 65.4 µM; in the assay on IGROV1 ovarian, 50.2 µM; with SK-MEL-2 melanoma it was > 100 µM; in the assay with HCT-15 colon it was > 100 µM. Moreover, the figures for the GI50 in the assay on SN12C renal and with SF-295 CNS were > 100 µM and 94.5 µM, respectively. Moreover, the TGI with SK-MEL-28 melanoma, in the assay on NCI/ADR-RES ovarian, with OVCAR-3 ovarian, in the assay with IGROV1 ovarian, with SK-MEL-2 melanoma and with HCT-15 colon was > 100 µM each time. Further, the TGI in the assay with SN12C renal and with SF-295 CNS was > 100 µM in each case.
Consider `Cc1ccc(Sc2oc(-c3ccc(C)cc3)nc2[P+](c2ccccc2)(c2ccccc2)c2ccccc2)cc1`, for which the GI50 in the assay on SK-MEL-28 melanoma was 0.595 µM; with NCI/ADR-RES ovarian, 0.49 µM; in the assay on OVCAR-3 ovarian, 0.359 µM; with MOLT-4 leukemia, 0.319 µM; with SK-MEL-2 melanoma, 1.12 µM; with HCT-15 colon, 0.31 µM. The GI50 with SN12C renal was 0.311 µM; with SF-295 CNS it was 0.291 µM. Also, the TGI in the assay on SK-MEL-28 melanoma is 1.87 µM; with NCI/ADR-RES ovarian, 2.21 µM; with OVCAR-3 ovarian, 1.33 µM; in the assay on MOLT-4 leukemia it was 1.11 µM; in the assay on SK-MEL-2 melanoma, 2.63 µM; with HCT-15 colon, 1.26 µM. Moreover, the TGI in the assay on SN12C renal amounted to 1.21 µM; with SF-295 CNS it was 1.02 µM.
Take `COc1ccc2c(c1)C(=O)c1c-2c(N2CCNCC2)nc2ccccc12`: the GI50 was 1.85 µM in the assay with SK-MEL-28 melanoma; 6.33 µM with NCI/ADR-RES ovarian; 13 µM with OVCAR-3 ovarian; 0.688 µM in the assay on MOLT-4 leukemia; 2.37 µM in the assay with IGROV1 ovarian; 4.62 µM in the assay on SK-MEL-2 melanoma. Moreover, the GI50 with HCT-15 colon was 3.44 µM; in the assay with SN12C renal, 3.91 µM; in the assay on SF-295 CNS it was 10.4 µM. For the same molecule, the TGI in the assay on SK-MEL-28 melanoma is 3.46 µM; with NCI/ADR-RES ovarian, 23.7 µM; in the assay on OVCAR-3 ovarian, 30 µM; in the assay on MOLT-4 leukemia, 3.03 µM; in the assay with IGROV1 ovarian, 8.7 µM; in the assay on SK-MEL-2 melanoma it was 21.2 µM. In addition, the TGI with HCT-15 colon turned out to be 11.8 µM; in the assay with SN12C renal, 14.9 µM; in the assay with SF-295 CNS it was 27.4 µM.
With `COc1ccc(-c2ccc(/C=N/n3c(COc4ccccc4Cl)n[nH]c3=S)o2)c([N+](=O)[O-])c1`, the GI50 in the assay on SK-MEL-28 melanoma is 55 µM; in the assay with NCI/ADR-RES ovarian, 22.6 µM; in the assay with SR leukemia it was 34.8 µM; in the assay with OVCAR-3 ovarian it was 17.7 µM; in the assay on IGROV1 ovarian, 52.7 µM; in the assay on HCT-15 colon, 26.5 µM. In addition, the GI50 in the assay with SN12C renal was 26.4 µM; with SF-295 CNS, 22.6 µM. Further, the TGI was > 100 µM with SK-MEL-28 melanoma; 57.1 µM in the assay on NCI/ADR-RES ovarian; 76.7 µM in the assay on SR leukemia; 46.7 µM in the assay with OVCAR-3 ovarian; > 100 µM in the assay with IGROV1 ovarian; 89.2 µM in the assay on HCT-15 colon. For the same molecule, the values for the TGI with SN12C renal and with SF-295 CNS were 82.4 µM and 56.5 µM, respectively.
Consider `O=c1c(-c2ccccc2)coc2cc(OC/C(=N/O)c3ccc(F)cc3)ccc12`, for which the GI50 in the assay on SK-MEL-28 melanoma is 19.2 µM; in the assay with NCI/ADR-RES ovarian, 23.9 µM; in the assay with OVCAR-3 ovarian, 19.7 µM; in the assay with MOLT-4 leukemia, 24 µM; with IGROV1 ovarian it was 19.9 µM; with HCT-15 colon, 21.3 µM. Moreover, the GI50 with SN12C renal was 16.2 µM; in the assay on SF-295 CNS, 25.5 µM. In addition, the TGI with SK-MEL-28 melanoma is > 100 µM; with NCI/ADR-RES ovarian, 62.3 µM; with OVCAR-3 ovarian, 47.4 µM; with MOLT-4 leukemia, > 100 µM; in the assay on IGROV1 ovarian, > 100 µM; in the assay with HCT-15 colon, 50.3 µM. In addition, the figures for the TGI in the assay with SN12C renal and with SF-295 CNS were 34.2 µM and 82.4 µM, respectively.
Turning to `Cc1cc(NC(=O)c2cnc(N3CCN(CCOCCOCCOCCOCCC(=O)N[C@H](C(=O)N4C[C@H](O)C[C@H]4C(=O)N[C@@H](C)c4ccc(-c5scnc5C)cc4)C(C)(C)C)CC3)cn2)c2ncccc2c1`, the GI50 in the assay on SK-MEL-28 melanoma was 2.54 µM; in the assay on NCI/ADR-RES ovarian, > 100 µM; in the assay with OVCAR-3 ovarian, 2.13 µM; in the assay with MOLT-4 leukemia it was 3.12 µM; with IGROV1 ovarian, 2.39 µM; with SK-MEL-2 melanoma, 3.17 µM. In addition, the GI50 in the assay with HCT-15 colon is 6.39 µM; in the assay on SN12C renal, 2.52 µM; in the assay with SF-295 CNS, 2.23 µM. The TGI with SK-MEL-28 melanoma was 6.7 µM; in the assay with NCI/ADR-RES ovarian it was > 100 µM; with OVCAR-3 ovarian, 4.45 µM; in the assay with MOLT-4 leukemia, 9.67 µM; in the assay with IGROV1 ovarian, 8.17 µM; with SK-MEL-2 melanoma, 11 µM. In addition, the figures for the TGI in the assay on HCT-15 colon, with SN12C renal and in the assay with SF-295 CNS were > 100 µM, 7.64 µM and 6.31 µM, respectively.
As to `NCCC(=O)NC(Cc1cnc[nH]1)C(=O)O` (configuration not stated), the TGI with SK-MEL-28 melanoma, in the assay with NCI/ADR-RES ovarian, in the assay with OVCAR-3 ovarian, with MOLT-4 leukemia, with IGROV1 ovarian and with SK-MEL-2 melanoma was > 100 µM in each case. Further, the TGI in the assay with HCT-15 colon, in the assay with SN12C renal and in the assay with SF-295 CNS was > 100 µM throughout.
Regarding `N/C(=N\c1nc2ccccc2s1)NC(=NC1CCCCC1)NC1CCCCC1`, the GI50 in the assay on SK-MEL-28 melanoma is 1.75 µM; with NCI/ADR-RES ovarian, 1.64 µM; with OVCAR-3 ovarian, 1.68 µM; in the assay with MOLT-4 leukemia, 1.98 µM; in the assay on IGROV1 ovarian, 1.46 µM; in the assay on SK-MEL-2 melanoma, 1.78 µM. The GI50 is 1.47 µM in the assay with HCT-15 colon, 1.61 µM in the assay with SN12C renal and 1.64 µM in the assay on SF-295 CNS. For the same molecule, the TGI with SK-MEL-28 melanoma amounted to 3.24 µM; with NCI/ADR-RES ovarian, 3.3 µM; in the assay on OVCAR-3 ovarian it was 3.17 µM; with MOLT-4 leukemia it was 5.45 µM; in the assay with IGROV1 ovarian it was 2.95 µM; in the assay on SK-MEL-2 melanoma it was 3.47 µM. Also, the TGI with HCT-15 colon amounted to 2.93 µM; with SN12C renal, 3.11 µM; in the assay with SF-295 CNS it was 3.03 µM.
On to `COCCOCOC(C)(C)[C@H](CCOC(C)=O)O[Si](c1ccccc1)(c1ccccc1)C(C)(C)C`, for which the TGI was > 100 µM with SK-MEL-28 melanoma; 14 µM with SR leukemia; 53.6 µM in the assay on OVCAR-3 ovarian; 19.1 µM in the assay on MOLT-4 leukemia; > 100 µM in the assay on IGROV1 ovarian; 59.2 µM in the assay on SK-MEL-2 melanoma. Further, the TGI with HCT-15 colon was > 100 µM; in the assay on SN12C renal it was 29.5 µM; in the assay on SF-295 CNS, 55.5 µM.
In the case of `CN1CCN(c2cc3nc4ccccc4n(-c4ccc(Cl)cc4)c-3cc2=N)CC1`, the GI50 is 32.1 µM with NCI/ADR-RES ovarian; 2.78 µM with OVCAR-3 ovarian; 12.8 µM with MOLT-4 leukemia; 17.2 µM with IGROV1 ovarian; 33.7 µM with SK-MEL-2 melanoma; 23.4 µM with HCT-15 colon. Moreover, the GI50 in the assay on SN12C renal was 19.4 µM; with SF-295 CNS, 23.4 µM. In addition, the TGI with NCI/ADR-RES ovarian is > 100 µM; in the assay on OVCAR-3 ovarian it was 16.7 µM; in the assay with MOLT-4 leukemia, 32 µM; with IGROV1 ovarian, 53.5 µM; in the assay on SK-MEL-2 melanoma it was > 100 µM; in the assay with HCT-15 colon, 81.3 µM. Besides, the values for the TGI with SN12C renal and in the assay on SF-295 CNS were 41.4 µM and 59.5 µM, respectively.
In the case of `COc1ccc(Cc2nc3ccccc3s2)cc1OC`, the TGI in the assay with SK-MEL-28 melanoma was 31.9 µM; in the assay on SR leukemia, 57.1 µM; in the assay with OVCAR-3 ovarian it was 31 µM; in the assay on MOLT-4 leukemia, 63.9 µM; with IGROV1 ovarian, 35.7 µM; in the assay on SK-MEL-2 melanoma it was 42.6 µM. Besides, the TGI in the assay with HCT-15 colon came out at 60.7 µM; with SN12C renal, 30.8 µM; with SF-295 CNS, 28.9 µM.
